For series [1], the system named is Human immunodeficiency virus 1. Kind of series: Antiviral activity against HIV1 3B in human H9 cells assessed as inhibition of viral replication after 3 days by p24 antigen capture assay. It counts as functional, organism-based. The conditions noted are these: Human immunodeficiency virus 1, 3B, H9, 72 h.
A further series deals with H9. Kind of series: Cytotoxicity against human H9 cells after 3 days. Particulars: H9, 72 h. In kind it is cell-based.
Series [2] in a line: Therapeutic index, ratio of IC50 for human H9 cells to EC50 for HIV1 3B. It counts as cell-based. The conditions noted are these: H9 cells (cytotoxicity) and HIV-1 3B (antiviral), read-out: TI.

Among the data in ChEMBL document CHEMBL1159288, “Anti-AIDS agents, 21. Triterpenoid saponins as anti-HIV principles from fruits of Gleditsia japonica and Gymnocladus chinensis, and a structure-activity correlation” (J Nat Prod, 1995) are EC50, IC50 and selectivity ratio values, retold here.

Structures are written as SMILES.

Usually EC50 stands for the concentration at which the effect is half-maximal. In general, IC50 refers to the point on the concentration scale where inhibition reaches its midpoint.

On to `CCCC(=O)O[C@H]1CC[C@]2(C)[C@H]3CC=C4[C@H]5CC(C)(C)CC[C@]5(C(=O)OC)[C@H](O)C[C@@]4(C)[C@]3(C)CC[C@H]2C1(C)C`, for which the 50% effective concentration (EC50) in series [1] stood at 27 µM. This molecule returned an IC50 in the series on H9 of 27 µM. In addition, in series [2], the selectivity ratio is 1.
Turning to `CC1(C)CC[C@]2(C(=O)O)[C@H](O)C[C@]3(C)C(=CC[C@@H]4[C@@]5(C)CC[C@H](O[C@@H]6O[C@H](CO[C@@H]7OC[C@H](O)[C@H](O)[C@H]7O)[C@@H](O)[C@H](O)[C@H]6O)C(C)(C)[C@@H]5CC[C@]43C)[C@H]2C1`, the EC50 in series [1] was found to be 13 µM. In the series with H9, this molecule returned a 50% inhibitory concentration (IC50) of 50 µM. Besides, the selectivity ratio in series [2] worked out at 3.8.
The like results for `CC1(C)C[C@@H]2C3=CC[C@@H]4[C@@]5(C)C[C@H](O)[C@H](O[C@@H]6O[C@H](CO[C@@H]7OC[C@H](O)[C@H](O)[C@H]7O[C@@H]7OC[C@@H](O)[C@H](O)[C@H]7O)[C@@H](O)[C@H](O)[C@H]6O)[C@@](C)(CO)[C@@H]5CC[C@@]4(C)[C@]3(C)C[C@H](O)[C@@]23C[C@@H]1OC3=O` were, in that order, 100 µM, above 100 µM and above 1.
The like results for `CCCCC(=O)O[C@H]1CC[C@]2(C)[C@H]3CC=C4[C@H]5CC(C)(C)CC[C@]5(C(=O)OC)[C@H](OC(=O)CCCC)C[C@@]4(C)[C@]3(C)CC[C@H]2C1(C)C` were, in that order, 31 µM, 54 µM and 1.8.
`CC1(C)C[C@@H]2C3=CC[C@@H]4[C@@]5(C)C[C@H](O)[C@H](O)[C@@](C)(CO)[C@@H]5CC[C@@]4(C)[C@]3(C)C[C@H](O)[C@@]23C[C@@H]1OC3=O`: the EC50 in series [1] was 8 µM. Further, the IC50 with H9 was found to be 40 µM. Further, in series [2], the selectivity ratio came to 5.
Take `C[C@@H]1O[C@@H](OC[C@H]2O[C@@H](OC(=O)[C@]34CCC(C)(C)C[C@@H]3C3=CC[C@@H]5[C@@]6(C)CC[C@H](O[C@@H]7O[C@H](CO[C@@H]8OC[C@H](O)[C@H](O)[C@H]8O[C@@H]8OC[C@@H](O)[C@H](O)[C@H]8O)[C@@H](O)[C@H](O)[C@H]7O)C(C)(C)[C@@H]6CC[C@@]5(C)[C@]3(C)C[C@H]4O)[C@H](O[C@@H]3O[C@@H](C)[C@H](O[C@@H]4OC[C@@H](O)[C@H](O[C@@H]5OC[C@@H](O)[C@H](O)[C@H]5O)[C@H]4O)[C@@H](O)[C@H]3O)[C@@H](O)[C@@H]2O)[C@H](O)[C@H](O)[C@H]1O`: the 50% effective concentration (EC50) in series [1] is above 100 µM. Further, the 50% inhibitory concentration (IC50) with H9 amounted to 43 µM.
As for `COC(=O)[C@]12CCC(C)(C)C[C@@H]1C1=CC[C@@H]3[C@@]4(C)CC[C@H](O[C@@H]5O[C@H](CO[C@@H]6OC[C@H](O)[C@H](O)[C@H]6O[C@@H]6OC[C@@H](O)[C@H](O)[C@H]6O)[C@@H](O)[C@H](O)[C@H]5O)C(C)(C)[C@@H]4CC[C@@]3(C)[C@]1(C)C[C@H]2O`, the EC50 in series [1] stood at 9.9 µM. The half-inhibitory concentration (IC50) with H9 was 22 µM. Moreover, the selectivity ratio in series [2] amounted to 2.2.
In the case of `CC(=O)O[C@H]1CC[C@]2(C)[C@H]3CC=C4[C@H]5CC(C)(C)CC[C@]5(C(=O)O)[C@H](OC(C)=O)C[C@@]4(C)[C@]3(C)CC[C@H]2C1(C)C`, the half-maximal effective concentration (EC50) in series [1] worked out at 2.3 µM. The molecule further returned a 50% inhibitory concentration (IC50) with H9 of 13 µM. The selectivity ratio in series [2] worked out at 5.4.
As for `CCCC(=O)O[C@H]1CC[C@]2(C)[C@H]3CC=C4[C@H]5CC(C)(C)CC[C@]5(C(=O)OC)[C@H](OC(=O)CCC)C[C@@]4(C)[C@]3(C)CC[C@H]2C1(C)C`, in series [1], the EC50 amounted to 15 µM. The same molecule returned an IC50 in the series on H9 above 160 µM. Further, the selectivity ratio in series [2] was above 11.
The like results for `CCCCC(=O)O[C@H]1CC[C@]2(C)[C@H]3CC=C4[C@H]5CC(C)(C)CC[C@]5(C(=O)OC)[C@H](O)C[C@@]4(C)[C@]3(C)CC[C@H]2C1(C)C` were, in that order, 30 µM, 180 µM and 5.9.
Consider `CC1(C)CC[C@]2(C(=O)O)[C@H](O)C[C@]3(C)C(=CC[C@@H]4[C@@]5(C)CC[C@H](O[C@@H]6O[C@H](CO[C@@H]7OC[C@H](O)[C@H](O)[C@H]7O[C@@H]7OC[C@@H](O)[C@H](O)[C@H]7O)[C@@H](O)[C@H](O)[C@H]6O)C(C)(C)[C@@H]5CC[C@]43C)[C@H]2C1`, for which, in series [1], the EC50 was above 100 µM. Also, half-maximal inhibition in the series on H9 (IC50) required 37 µM.
Take `COC(=O)[C@]12CCC(C)(C)C[C@@H]1C1=CC[C@@H]3[C@@]4(C)CC[C@H](OC(C)=O)C(C)(C)[C@@H]4CC[C@@]3(C)[C@]1(C)C[C@H]2O`: the EC50 in series [1] worked out at 5.1 µM. In the series with H9, this molecule yielded an IC50 of 7.6 µM. Also, in series [2], the selectivity ratio amounted to 1.5.
As to `CC1(C)CC[C@]2(C(=O)O)[C@H](O)C[C@]3(C)C(=CC[C@@H]4[C@@]5(C)CC[C@H](O)C(C)(C)[C@@H]5CC[C@]43C)[C@H]2C1` [ECHINOCYSTIC ACID], the 50% effective concentration (EC50) in series [1] came to 42 µM. The molecule also yielded an IC50 with H9 of 74 µM.
In the case of `CC1(C)CC[C@]2(C(=O)O)[C@H](O)C[C@]3(C)C(=CC[C@@H]4[C@@]5(C)CC[C@H](O)C(C)(C)[C@@H]5CC[C@]43C)[C@@H]2C1` [ECHINOCYSTIC ACID], the selectivity ratio in series [2] is 1.8.
Regarding `C=C[C@@](C)(O)CC/C=C(\C)C(=O)O[C@H]1[C@H](OC[C@H]2O[C@@H](OC(=O)[C@]34CCC(C)(C)C[C@@H]3C3=CC[C@@H]5[C@@]6(C)CC[C@H](O[C@@H]7O[C@H](CO[C@@H]8OC[C@H](O)[C@H](O)[C@H]8O[C@@H]8OC[C@@H](O)[C@H](O)[C@H]8O)[C@@H](O)[C@H](O)[C@H]7O)C(C)(C)[C@@H]6CC[C@@]5(C)[C@]3(C)C[C@H]4O)[C@H](O[C@@H]3O[C@@H](C)[C@H](O[C@@H]4OC[C@@H](O)[C@H](O[C@@H]5OC[C@@H](O)[C@H](O)[C@H]5O)[C@H]4O)[C@@H](O)[C@H]3O)[C@@H](O)[C@@H]2O)O[C@@H](C)[C@H](O)[C@H]1OC(=O)/C(=C/CC[C@](C)(O)C=C)CO` [GLEDITSIA SAPONIN C], the EC50 in series [1] is 1.1 µM. For the same molecule, the IC50 in the series on H9 amounted to 9.8 µM. The selectivity ratio in series [2] came to 8.9.
Turning to `C=C[C@](C)(CC/C=C(\C)C(=O)O[C@H]1C[C@@]2(C(=O)O[C@@H]3O[C@H](CO[C@@H]4O[C@@H](C)[C@H](O)[C@@H](O)[C@H]4O)[C@@H](O)[C@H](O)[C@H]3O[C@@H]3O[C@@H](C)[C@H](O[C@@H]4OC[C@@H](O)[C@H](O[C@@H]5OC[C@@H](O)[C@H](O)[C@H]5O)[C@H]4O)[C@@H](O)[C@H]3O)[C@H](CC1(C)C)C1=CC[C@@H]3[C@@]4(C)C[C@H](O)[C@H](O[C@@H]5O[C@H](CO[C@@H]6OC[C@H](O)[C@H](O)[C@H]6O[C@@H]6OC[C@@H](O)[C@H](O)[C@H]6O)[C@@H](O)[C@H](O)[C@H]5O)[C@@](C)(CO)[C@@H]4CC[C@@]3(C)[C@]1(C)C[C@@H]2O)O[C@@H]1OC[C@H](OC(=O)CC(C)C)[C@H](O[C@@H]2O[C@H](CO)[C@@H](O)[C@H](O)[C@H]2O)[C@H]1O` [GYMNOCLADUS SAPONIN G], the concentration for a half-maximal effect (EC50) in series [1] turned out to be 2.7 µM. In addition, half-maximal inhibition with H9 (IC50) required 14 µM. Moreover, the selectivity ratio in series [2] was determined as 5.2.
On to `COC(=O)[C@]12CCC(C)(C)C[C@@H]1C1=CC[C@@H]3[C@@]4(C)CC[C@H](O)C(C)(C)[C@@H]4CC[C@@]3(C)[C@]1(C)C[C@H]2O` [METHYL ECHINOCYSTATE], for which, in series [1], the half-maximal effective concentration (EC50) worked out at 3.1 µM. Further, 4.9 µM corresponded to half-maximal inhibition with H9 (IC50). In addition, the selectivity ratio in series [2] is 1.6.
